{"source": "patent US20040106120A1", "about": "“Diagnosis and treatment of disease” (priority 2000, published 2004)", "key": {"[1]": {"tested_on": "reconstituted human epidermis cultures (skin equivalents)", "experiment": "Treatment of skin equivalents (reconstituted human epidermis cultures) for 16 hours, light microscopy histology", "format": "cell-based", "conditions": "16 hours at 37° C; for effect of cytokine on stratum corneum thickness of skin equivalent: 2.5 ng/ml added to medium; for effect of peptide on stratum corneum of skin equivalent: 6 μM peptide, 200 μl applied to surface, versus buffered salt solution", "protocol": "(§1) 1 ml of room temperature SkinEthic maintenance medium is added to each well of 6-well tissue culture plates (one well per skin equivalent). The cell culture inserts containing the skin equivalents are removed from the agarose transportation medium using sterile forceps and placed in the wells ensuring no air bubbles are formed. The well plates are placed in a humid incubator at 37° C., 5% CO2. After 24 hours the medium is changed and the appropriate treatment is applied. 200 μl of each treatment is applied to the surface of the skin equivalent as follows: Control—buffered salt solution; 10% foetal bovine serum; 0.25% chymotrypsin; 6 μM Peptide 643.\nAll reagents are made up to the correct concentration in a buffered salt solution comprising the following in 1 litre: 0.142 g Na2HPO4, 1.802 g Glucose, 7.149 g HEPES, 0.224 g KCl, 7.597 g NaCl, pH 7.4.\nTreatments are allowed to act on the cultures for 16 hours at 37° C.\nThe skin equivalents and membranes are cut from the cell culture insert using a scalpel. The equivalents are fixed in 10% formalin (3.7% formaldehyde) in phosphate buffered saline for 24 hours at 4° C. Samples are washed in 3 changes of PBS. The PBS is the decanted from the samples which are dehydrated in 3×5 minute changes of 70% ethanol, 2×5 minute changes of 95% ethanol and 2×5 minute changes of 100% ethanol. The samples are then placed in xylene for 5 minutes and then molten paraffin for infiltration for 5 minutes. The samples are occasionally agitated during each of the steps. The equivalents are then oriented in more molten paraffin in an embedding mould and allowed to set for 1 hour.\n5 μm sections are taken of each block and collected on glass microscope slides. The slides are dried at 50° C. overnight.\nThe slides are racked and placed in xylene for 2×5 minute washes to remove any unwanted paraffin. The slides are then rehydrated by placing them for 5 minutes in each of the following; 2×100% ethanol, 1×95% ethanol, 1×70% ethanol. The slides are then rinsed in running tap water for 1 minute. Staining is with Gill's haematoxylin (2 minutes) followed by rinsing in water for 2 minutes then placing in 1% eosin for 5 minutes and rinsing briefly in water. The samples are dehydrated once more by placing in 70% ethanol for 30 seconds, 95% ethanol for 30 seconds and 2 changes of 100% ethanol for 1 and 2 minutes each. The slides are then placed in xylene for 1 minute before mounting coverslips with DPX mountant for microscopy.\nSlides are examined under light microscope at using the 40×objective lens and typical images are captured onto the PC using Synoptics Acquis Pro.\nas §1, with “applied.” for “applied. 200 μl of each treatment is applied to the surface of the skin equivalent as follows: Control—buffered salt solution; 10% foetal bovine serum; 0.25% chymotrypsin; 6 μM Peptide 643.”\n200 μl of the following treatments are applied to the surface of the skin equivalents: (1) Control—buffered salt solution; (2) 6 μM Peptide 641; (3) 6 μM Peptide 642; (4) 6 μM Peptide643; (5) 6 μM Peptide 651; (6) 6 μM Peptide 653.\nThe following treatments are diluted from stock solutions (10 μg/ml TNF-α, 1 μg/m IL-1β) directly into 1 ml of medium and added to the well during the medium change: (7) 2.5 ng/ml TNF-α; and (8) 75 ng/ml IL-1β."}, "[2]": {"biological_target": "chymotrypsin (Bos taurus, UniProt P00766)", "experiment": "Chymotrypsin proteolysis of synthetic corneodesmosin peptides", "format": "biochemical", "conditions": "peptide exposed to chymotrypsin in appropriate buffer", "text": "Peptides corresponding to fragments of corneodesmosin, and comprising amino acids at and around position 40 (L20815; corresponding to position 180 on the nucleotide sequence) are synthesised. The peptides are exposed to chymotrypsin in appropriate buffer, and the digestion products identified. Chymotrypsin is known to cleave the peptide bond C-terminal to a F, Y or W residue, but not C-terminal to an L residue.\nPeptides P1 and P2 (size 38 amino acids, comprising L and F at position 40 of L20815 respectively) are exposed to chymotrypsin. Peptide P1 has the sequence PTRITSPNDPCL40[…], while peptide P2 has the sequence PTRITSPNDPCF40[…].\nThe above results are confirmed by using the ExPASy Molecular Biology Server at http://www.expasy.ch/."}, "[3]": {"tested_on": "psoriatic skin biopsy (stratum corneum)", "experiment": "Treatment of skin biopsies from psoriatic patients with protease, transmission electron microscopy", "set-up": "species or system human", "conditions": "0.25% chymotrypsin, 16 hours at 37° C, versus untreated half", "protocol": "All biopsies are carried out by a dermatologist in an operating theatre. Aseptic technique is employed and sterile/disposable equipment used throughout the procedure. Two skin biopsies are taken from the lower back of each patient, one from an area of active plaque psoriasis and the other from an uninvolved site at least 10 cm away. The lower back is cleaned with antiseptic solution and local anaesthetic introduced to the intended areas of biopsy. Ellipses approximately 1.5 cm by 0.5 cm are excised from both lesional and non-lesional skin and placed in a container with PBS solution. The wounds are sutured using catgut for deep sutures and ethilon for superficial sutures (employing two or three stitches per wound). After the operation the wounds are covered with a sterile dressing and the patient observed for 30 minutes before being allowed home. Sutures are removed two weeks later.\nThe following procedures are performed under aseptic conditions: The psoriatic skin biopsy is cut into 2 pieces using a sterile scalpel. One half of the biopsy is placed in 2 ml of 0.25% chymotrypsin (diluted from a 10×stock in skin maintenance medium, Skinethic) in one well of a 24-well plate. The other half is incubated in 2 ml of maintenance medium with no additions. […]\nUltrathin sections (70-90 nm) are cut on an ultramicrotome. […] Electron micrographs are recorded on Agfa Scientia 23D56 EM film."}}, "data": [{"substance": "IL-1β: cytokine purchased from Calbiochem", "values": [{"measurement": "effect of cytokine on stratum corneum thickness of skin equivalent", "setting": "[1]", "value": "increase in the thickness of the stratum corneum"}]}, {"substance": "NH2-cys-val-ser-pro-val-lys-ala-COOH (H-CVSPVKA-OH) [Peptide 643, fragment of SLPI (CVSPVKA)]", "values": [{"measurement": "effect of peptide on stratum corneum of skin equivalent", "setting": "[1]", "value": "thickening of the stratum corneum"}]}, {"substance": "NH2-leu-asp-pro-val-asp-COOH [Peptide 651]", "values": [{"measurement": "effect of peptide on stratum corneum of skin equivalent", "setting": "[1]", "value": "increase in the thickness of the stratum corneum"}]}, {"substance": "NH2-leu-asp-pro-val-asp-thr-pro-asn-pro-thr-arg-arg-lys-pro-gly-COOH [Peptide 653]", "values": [{"measurement": "effect of peptide on stratum corneum of skin equivalent", "setting": "[1]", "value": "increase in the thickness of the stratum corneum"}]}, {"substance": "NH2-met-glu-asn-ser-leu-gly-pro-phe-pro-gln-cys-COOH (H-MENSLGPFPQC-OH) [Peptide 641, fragment of Desmocollin 1 (…)]", "values": [{"measurement": "effect of peptide on stratum corneum of skin equivalent", "setting": "[1]", "value": "more permeable"}]}, {"substance": "NH2-ser-gly-lys-arg-asp-lys-ser-glu-glu-val-gln-cys-COOH (H-SGKRDKSEEVQC-OH) [Peptide 642, fragment of Desmoplakin (…)]", "values": [{"measurement": "effect of peptide on stratum corneum of skin equivalent", "setting": "[1]", "value": "more permeable"}]}, {"substance": "PTRITSPNDPCF40TGKGDSSGFSGSSSSGSSISSAR [peptide P2]", "values": [{"measurement": "products of proteolysis by chymotrypsin", "setting": "[2]", "value": "three small peptides"}]}, {"substance": "PTRITSPNDPCL40TGKGDSSGFSGSSSSGSSISSAR [peptide P1]", "values": [{"measurement": "products of proteolysis by chymotrypsin", "setting": "[2]", "value": "two products of proteolysis"}]}, {"substance": "TNF-α", "values": [{"measurement": "effect of cytokine on stratum corneum thickness of skin equivalent", "setting": "[1]", "value": "increase in the thickness of the stratum corneum"}]}, {"substance": "chymotrypsin", "values": [{"measurement": "corneodesmosomes visible in stratum corneum", "setting": "[3]", "value": "far fewer corneodesmosomes are visible"}, {"measurement": "stratum corneum morphology (corneocyte layers)", "setting": "[3]", "value": "splitting of the layers of corneocytes (acantholysis)"}, {"measurement": "effect of protease on stratum corneum barrier of skin equivalent", "setting": "[1]; applied to surface, chymotrypsin 0.25%", "value": "degrades the barrier of the stratum corneum"}]}]}
